From ChEMBL document CHEMBL1137944, “Imidazole derivatives as new potent and selective 20-HETE synthase inhibitors” (Bioorg Med Chem Lett, 2004)

Legend:
Cytochrome P450 2D6 = Cytochrome P450 2D6 (Homo sapiens, UniProt P10635); test: Inhibition of cytochrome P450 2D6
Cytochrome P450 3A4 = Cytochrome P450 3A4 (Homo sapiens, UniProt P08684); test: Inhibition of cytochrome P450 3A4
Cytochrome P450 2C19 = Cytochrome P450 2C19 (Homo sapiens, UniProt P33261); test: Inhibition of cytochrome P450 2C19
[1] = Inhibition of 20-HETE synthesis in human renal microsomes; set-up: species or system Microsome
Cytochrome P450 2C9 = Cytochrome P450 2C9 (Homo sapiens, UniProt P11712); test: Inhibition of cytochrome P450 2C9
Cytochrome P450 1A2 = biological target: T1, Cytochrome P450 1A2 (Homo sapiens, UniProt P05177); test: Inhibition of cytochrome P450 1A2
T1 sequence (P05177 whole entry): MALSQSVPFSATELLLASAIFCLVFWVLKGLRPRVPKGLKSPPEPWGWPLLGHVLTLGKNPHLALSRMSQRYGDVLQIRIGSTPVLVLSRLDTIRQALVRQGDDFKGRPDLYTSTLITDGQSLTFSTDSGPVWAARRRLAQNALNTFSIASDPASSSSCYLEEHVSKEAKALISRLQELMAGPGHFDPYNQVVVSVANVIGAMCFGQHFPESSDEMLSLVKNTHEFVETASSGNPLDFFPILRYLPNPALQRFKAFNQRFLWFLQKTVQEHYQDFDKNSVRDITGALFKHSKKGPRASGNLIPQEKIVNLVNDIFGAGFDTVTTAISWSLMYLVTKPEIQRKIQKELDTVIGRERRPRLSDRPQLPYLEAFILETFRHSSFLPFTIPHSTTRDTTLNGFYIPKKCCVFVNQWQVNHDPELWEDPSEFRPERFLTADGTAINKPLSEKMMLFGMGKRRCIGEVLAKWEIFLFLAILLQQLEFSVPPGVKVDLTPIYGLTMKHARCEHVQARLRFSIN

[2] = Distribution coefficient of compound was evaluated at pH 6.8; conditions: octanol/water

Cytochrome P450 3A4, sequence (P08684 whole entry): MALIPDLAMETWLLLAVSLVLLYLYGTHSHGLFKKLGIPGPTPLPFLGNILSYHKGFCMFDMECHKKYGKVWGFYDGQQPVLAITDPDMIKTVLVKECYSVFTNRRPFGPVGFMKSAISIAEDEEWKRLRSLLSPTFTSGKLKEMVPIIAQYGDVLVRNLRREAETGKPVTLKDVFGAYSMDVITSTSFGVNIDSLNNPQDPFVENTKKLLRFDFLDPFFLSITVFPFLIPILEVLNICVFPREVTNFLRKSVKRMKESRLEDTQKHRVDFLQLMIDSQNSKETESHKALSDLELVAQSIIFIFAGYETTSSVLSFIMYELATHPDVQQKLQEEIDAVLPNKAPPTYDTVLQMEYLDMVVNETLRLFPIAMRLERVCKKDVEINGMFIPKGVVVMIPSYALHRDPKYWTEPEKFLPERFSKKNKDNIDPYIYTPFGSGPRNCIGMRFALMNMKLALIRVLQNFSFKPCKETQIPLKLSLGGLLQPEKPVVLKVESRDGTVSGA
Cytochrome P450 2D6, sequence (P10635 whole entry): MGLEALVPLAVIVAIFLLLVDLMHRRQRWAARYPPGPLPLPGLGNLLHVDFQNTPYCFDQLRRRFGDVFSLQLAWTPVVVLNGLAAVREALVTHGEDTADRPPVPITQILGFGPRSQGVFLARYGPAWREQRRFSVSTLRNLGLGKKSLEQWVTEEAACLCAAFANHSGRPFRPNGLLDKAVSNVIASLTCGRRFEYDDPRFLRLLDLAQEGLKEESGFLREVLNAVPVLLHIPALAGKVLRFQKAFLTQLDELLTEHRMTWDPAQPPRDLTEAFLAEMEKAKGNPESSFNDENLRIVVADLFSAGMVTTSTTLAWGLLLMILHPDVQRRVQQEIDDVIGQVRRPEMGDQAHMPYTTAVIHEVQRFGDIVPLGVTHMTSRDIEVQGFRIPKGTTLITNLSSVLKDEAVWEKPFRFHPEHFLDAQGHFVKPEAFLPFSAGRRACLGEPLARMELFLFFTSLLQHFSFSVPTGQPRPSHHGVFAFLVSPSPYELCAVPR
Cytochrome P450 2C9, sequence (P11712 whole entry): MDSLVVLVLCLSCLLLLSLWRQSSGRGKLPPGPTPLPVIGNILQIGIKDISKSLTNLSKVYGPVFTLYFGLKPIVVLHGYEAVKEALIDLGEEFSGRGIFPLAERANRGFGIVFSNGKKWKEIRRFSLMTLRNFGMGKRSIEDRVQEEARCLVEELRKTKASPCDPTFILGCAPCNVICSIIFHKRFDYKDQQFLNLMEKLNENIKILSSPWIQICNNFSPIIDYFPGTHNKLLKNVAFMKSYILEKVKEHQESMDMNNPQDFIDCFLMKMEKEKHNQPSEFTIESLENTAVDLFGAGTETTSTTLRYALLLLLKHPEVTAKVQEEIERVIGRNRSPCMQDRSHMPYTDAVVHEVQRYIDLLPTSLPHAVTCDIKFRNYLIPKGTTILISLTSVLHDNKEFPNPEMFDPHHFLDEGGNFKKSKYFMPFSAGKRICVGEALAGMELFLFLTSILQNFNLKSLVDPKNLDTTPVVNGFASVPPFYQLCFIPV
Cytochrome P450 2C19, sequence (P33261 whole entry): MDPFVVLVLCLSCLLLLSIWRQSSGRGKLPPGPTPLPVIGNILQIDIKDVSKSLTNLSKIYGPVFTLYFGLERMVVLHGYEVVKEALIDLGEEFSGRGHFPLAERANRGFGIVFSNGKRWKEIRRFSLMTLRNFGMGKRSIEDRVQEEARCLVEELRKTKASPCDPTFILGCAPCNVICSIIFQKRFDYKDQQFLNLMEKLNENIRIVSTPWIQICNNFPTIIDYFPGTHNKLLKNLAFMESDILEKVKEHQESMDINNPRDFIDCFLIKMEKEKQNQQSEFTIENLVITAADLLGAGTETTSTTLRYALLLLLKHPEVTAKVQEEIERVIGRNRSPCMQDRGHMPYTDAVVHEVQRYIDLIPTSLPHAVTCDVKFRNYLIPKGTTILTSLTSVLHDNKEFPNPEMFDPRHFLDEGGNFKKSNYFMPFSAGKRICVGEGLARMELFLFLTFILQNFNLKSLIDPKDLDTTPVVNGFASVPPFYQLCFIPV

Row | IC50 (Cytochrome P450 2D6) [nM] | IC50 (Cytochrome P450 3A4) [nM] | IC50 [1] [nM] | IC50 (Cytochrome P450 1A2) [nM] | logD [2] | Compound | IC50 (Cytochrome P450 2C19) [nM] | IC50 (Cytochrome P450 2C9) [nM]
1 | 399 | 5670 | 8.6 | 1480 | 0.91 | c1cn(-c2ccc(OCCN3CCOCC3)cc2)cn1 | 91 | 1810
2 | 410 | 4460 | 2.2 | 800 | 0.51 | CN(C)CCCCCCOc1ccc(-n2ccnc2)cc1 |  | 
3 | 400 | 39000 | 51 | 3400 | -0.41 | CN(C)CCCOc1ccc(-n2ccnc2)cc1 |  | 
4 | 3200 | > 100000 | 16 | 2240 | 2.27 | CCOC(=O)N1CCN(CCOc2ccc(-n3ccnc3)cc2)CC1 | 469 | 1440
5 |  |  | 8.9 |  |  | CCCCc1ccc(/N=C/NO)c(C)c1 |  | 
6 |  |  | 7.7 |  |  | CCCCCCOc1ccc(-n2ccnc2)cn1 |  | 
7 | 1050 | > 100000 | 387 | 15000 | -0.08 | CN(C)CCOc1ccc(-n2ccnc2)cc1 |  | 

Row | Compound | IC50 (Cytochrome P450 2D6) [nM] | IC50 (Cytochrome P450 3A4) [nM] | IC50 [1] [nM] | IC50 (Cytochrome P450 1A2) [nM] | logD [2] | IC50 (Cytochrome P450 2C19) [nM] | IC50 (Cytochrome P450 2C9) [nM]
8 | c1ccc(COc2ccc(-n3ccnc3)cc2)nc1 | 1040 | 630 | 4.5 | 120 | 1.99 | < 46 | 130
9 | c1cc(CCCOc2ccc(-n3ccnc3)cc2)ccn1 | 1040 | 344 | 1.1 | < 46 | 2.81 | < 46 | 101
10 | c1ccc(CCCOc2ccc(-n3ccnc3)cc2)nc1 | 620 | 252 | 2.1 | < 46 | 2.84 | < 46 | 129
11 | c1cncc(CCCOc2ccc(-n3ccnc3)cc2)c1 | 1300 | 417 | 1.1 | < 46 | 2.85 | < 46 | 185
